According to PMC8024735, “Low Z‐4OHtam concentrations are associated with adverse clinical outcome among early stage premenopausal breast cancer patients treated with adjuvant tamoxifen” (Molecular Oncology, 2020):
Values joined by “and” are separate entries in the source; they are usually repeats but may differ in a detail not shown here. Equal values may be shown once.

Key:
[1] = Quantification of tamoxifen and seven metabolites in bone marrow plasma by LC-MS/MS; settings: for Mean concentration / Median concentration: bone marrow plasma, N = 406, ~ 8 months from tamoxifen initiation
Procedure: During the isolation of mononuclear cells, BM samples were diluted 1 : 2 in PBS and centrifuged 10 min at 1000 g. After centrifugation, 3 × 1 mL samples of BM plasma was removed and stored at −40 °C and later transferred to −80 °C.
Tamoxifen and seven metabolites (Table 2) were quantified in human BM plasma samples collected ~ 8 months from tamoxifen initiation using our previously described method for serum [17]. In brief, protein precipitation (20 μL) of BM plasma was performed in acetonitrile containing deuterated internal standards. The supernatant (80 μL) was evaporated to dryness using nitrogen and subsequently reconstituted in 500 μL water : methanol (20 : 80, v:v). Subsequently, the samples were chromatographically separated on a Waters Acquity UPLC system (Milford, MA, USA) using a Waters BEH Phenyl column (100 mm × 2.1 mm, 1.7 μm particle size). The column was developed by a gradient elution of 0.01% aqueous solution of formic acid and methanol as weak and strong mobile phases, respectively. The compounds were subjected to atmospheric pressure photoionization and detected in positive ion mode using a Xevo TQ‐S tandem mass spectrometer (Waters, Taunton, MA, USA). All measured concentrations were multiplied by 3 to account for the dilution factor caused by adding 2 volumes of PBS during the isolation of mononuclear cells.

ER = settings: fold higher than tamoxifen; cited from earlier work
ER‐positive BC = test system: ER‐positive BC; set-up: method as in PMID 15894097; settings: patients using tamoxifen; cited from earlier work
[2] = set-up: method as in printed; settings: has been reported, ref not given; cited from earlier work
[3] = test system: estrogen receptor‐positive breast cancer (BC) patients; assay: Breast cancer-specific survival (BCSS) according to active metabolite thresholds, Kaplan-Meier and Cox regression; type: in vivo, human
Excerpt: Patients included in this retrospective analysis were selected from subjects on a prospective trial investigating the value of Secondary Adjuvant (rescue) Treatment with docetaxel (Taxotere) [SATT (Secondary Adjuvant Treatment with Taxotere) study] for BC patients with disseminated tumor cells in their bone marrow (BM). […] Inclusion criteria were completion of primary surgery, completion of six cycles of anthracycline (AC)‐containing chemotherapy, and node‐positive or pT1c‐T4G2‐3 node‐negative BC with no earlier or other concomitant carcinoma.
Thus, they reflect patients treated with endocrine treatment outside studies, according to national guidelines.
Selection of patients younger than 45 years ensured that the patients received tamoxifen as a monotherapy for 5 years according to guidelines at the time of inclusion. […] Patients with plasma tamoxifen concentrations of < 40 nM were considered to be nonadherent to tamoxifen and excluded from both subgroups. As molecular subtyping was not available, the relevance of luminal subgroup status on active metabolite thresholds was investigated by creation of a Luminal B‐like subgroup based on tumor pathological surrogate markers available. […] All other patients were grouped as Luminal A [29, 30].
Survival analyses included Kaplan–Meier and Cox regression analyses in which breast cancer‐specific survival (BCSS), defined as time from inclusion to death by BC, was used as the main outcome variable. The log‐rank test was applied to test for statistical difference in survival between groups. […] First, we fitted univariable Cox models. Next, in multivariable Cox regression models we included both clinically relevant variables and variables with a P‐value ≤ 0.2 from the univariable analysis. […] Distribution of metabolite concentrations and clinical variables was calculated and presented as means, medians, and frequencies. Interpatient variability in tamoxifen concentrations was calculated as coefficients of variation. Ratios between Z‐endoxifen and Z‐4OHtam were calculated by dividing the two metabolite concentrations and reported as means with range. All statistical analyses were conducted using IBM ® SPSS ® Statistics version 25 (SPSS, Inc., Chicago, IL, USA). Two‐tailed P‐values < 0.05 were considered statistically significant.

breast cancer patients = test system: breast cancer patients; set-up: method as in PMID 29183390; settings: thresholds Z-4OHtam 3.26 nM, Z-endoxifen 9 nM, learning set; cited from earlier work
[4] = all analyzed patients (n = 406)

Structure (SMILES): CC/C(=C(\c1ccccc1)c1ccc(OCC[N+](C)(C)[O-])cc1)c1ccccc1 [TamNoX]
- Mean concentration [1]: 49.9 nM
- Median concentration [1]: 43.1 nM

Structure (SMILES): CCC(=C(c1ccccc1)c1ccc(OCCNC)cc1)c1ccc(O)cc1 [Z‐4'‐endoxifen]
- Mean concentration [1]: 20.8 nM
- Median concentration [1]: 19.6 nM

Structure (SMILES): CC/C(=C(\c1ccc(O)cc1)c1ccc(OCCN(C)C)cc1)c1ccccc1 [Z‐4OHtam, Z‐4‐hydroxy‐tamoxifen]
- Affinity to the ER compared with tamoxifen (ER): 100 × and ~ 100 ×

Structure (SMILES): CC/C(=C(\c1ccccc1)c1ccc(OCCNC)cc1)c1ccccc1 [NDtam]
- Mean concentration [1]: 694.9 nM
- Median concentration [1]: 655.8 nM

Structure (SMILES): CC/C(=C(\c1ccccc1)c1ccc(OCCN(C)C)cc1)c1ccccc1 [Tam, tamoxifen]
- Mean concentration [1]: 365.9 nM
- Median concentration [1]: 341.2 nM
- Patients experiencing a relapse within 10 years (ER‐positive BC): ~ 25%

Structure (SMILES): CC/C(=C(\c1ccccc1)c1ccc(OCCN)cc1)c1ccccc1 [NNDDtam, N,N‐di‐desmethyl tamoxifen]
- Mean concentration [1]: 94.7 nM

Structure (SMILES): CC/C(=C(\c1ccc(O)cc1)c1ccc(OCCNC)cc1)c1ccccc1 [Z‐endoxifen, 4‐hydroxy‐N‐desmethyl tamoxifen]
- Affinity to the ER compared with tamoxifen (ER): 100 × and ~ 100 ×
- Abundance in serum compared with Z-4OHtam [2]: up to 10 times
- Association of ordinal categories (low, moderate, high concentration) with BCSS ([3]; 'tamoxifen-only' subgroup): No significant associations
- Association of threshold with BCSS ([3]; 'tamoxifen-only' subgroup, uni-/multivariable): No uni‐/multivariable associations
- HR for BCSS ([3]; Z-endoxifen 9.00 nM threshold, all patients n = 406): 0.63 (0.15-2.60)
- HR (95% CI) for BCSS, univariable ([3]; Z-endoxifen ≤ 9 nM vs > 9 nM, 'tamoxifen-only' subgroup n = 191): 0.98 (0.23–4.15)
- Association of concentrations below thresholds with BCSS ([3]; all 406 patients, thresholds 9 nM Z-endoxifen, 3.26 nM Z-4OHtam): not associated with BCSS
- Predictive value of thresholds in Luminal A / Luminal B-like subgroups ([3]; post hoc analysis, thresholds 3.26 and 9 nM): not predictive of survival in either subgroup
- Hazard ratio (HR) of threshold in prior report (breast cancer patients): 3.73
- Median ratio between Z-endoxifen and Z-4OHtam concentrations ([1]; 'tamoxifen-only' subgroup): 5.6
- Range of ratio between Z-endoxifen and Z-4OHtam concentrations ([1]; 'tamoxifen-only' subgroup): 1.9–14.9
- Median ratio between Z-endoxifen and Z-4OHtam concentrations [1, 4]: 5.7
- Range of ratio between Z-endoxifen and Z-4OHtam concentrations [1, 4]: 1.2–14.9
- Mean concentration [1]: 28.7 nM
- Median concentration [1]: 26.6 nM

Structure (SMILES): CC/C(=C(\c1ccccc1)c1ccc(OCCN(C)C)cc1)c1ccc(O)cc1 [Z‐4'‐OHtam]
- Mean concentration [1]: 6.9 nM
- Median concentration [1]: 6.6 nM
